Assay results published in ChEMBL document CHEMBL4689842, “EUbOPEN Chemogenomics Library wave 1” (2021).

Legend:
Format in all cases: toxicity, cell-based
[1] = tested on: HEK-293T; experiment: Incucyte cell viability with HEK293T; conditions: human, 10 µM, compound concentration 10 uM
[2] = tested on: U2OS; experiment: Incucyte cell viability with U2OS; conditions: human, 10 µM, compound concentration 10 uM
[3] = tested on: Fibroblast; experiment: Incucyte cell viability with human fibroblast; conditions: 10 µM, compound concentration 10 uM
[4] = 0 h, replicate number 1, timepoint 0 hours
[5] = 24 h, replicate number 2, timepoint 24 hours
[6] = 0 h, replicate number 2, timepoint 0 hours
[7] = 12 h, replicate number 1, timepoint 12 hours
[8] = 18 h, replicate number 1, timepoint 18 hours
[9] = 24 h, replicate number 1, timepoint 24 hours
[10] = 6 h, replicate number 1, timepoint 6 hours
[11] = 6 h, replicate number 2, timepoint 6 hours
[12] = 18 h, replicate number 2, timepoint 18 hours
[13] = 12 h, replicate number 2, timepoint 12 hours
Further: filed as whole numbers so only -1 and 0 and 1 occur.

SMILES	Growth Rate [1, 4]	Growth Rate [2, 6]	Growth Rate [2, 7]	Growth Rate [2, 8]	Growth Rate [2, 9]	Growth Rate [3, 4]	Growth Rate [1, 6]	Growth Rate [1, 11]	Growth Rate [1, 7]	Growth Rate [1, 8]	Growth Rate [1, 9]	Growth Rate [2, 4]	Growth Rate [2, 10]	Growth Rate [2, 11]	Growth Rate [2, 12]	Growth Rate [3, 11]	Growth Rate [3, 8]	Growth Rate [3, 9]	Growth Rate [3, 10]	Growth Rate [3, 7]	other results
Cc1ccc(-c2ccc3c(ccc4sc5c(c43)NC[C@@H](C)NC5=O)n2)cn1	1	0	1	1	1	0															Growth Rate [1, 5]: 1
O=c1ccn([C@@H]2O[C@H](COP(=O)([O-])OP(=O)([O-])O)[C@@H](O)[C@H]2O)c(=O)[nH]1.[Na+].[Na+]	1	0	1	0	1	0	0	1	1	1	1	1	0	1	1	1	1	1			Growth Rate [1, 10]: 0; Growth Rate [3, 13]: 1
O=C(c1ccc(C(=O)N2CCC(N3CCCC3)CC2)c(Nc2ccccc2)c1)N1CCC(N2CCCC2)CC1			1	1	1	0	0				1			1			1	1	1	1	
Cc1nc(-c2ccc(C(F)(F)F)cc2)sc1COc1ccc([C@H](CC(=O)O)c2ccon2)cc1		0	0	0	0	0	0	1	0	0	0			0	1		1	0	0	1	Growth Rate [1, 10]: 0; Growth Rate [2, 13]: 1; Growth Rate [2, 5]: 1; Growth Rate [3, 13]: 0; Growth Rate [3, 12]: 0
COc1cc(-c2cn(C)c(=O)c3cnccc23)c(OC)cc1CN(C)C	1		1	0	1	0		1	1	0	0	0	0	1	1	1	0	0	0	0	Growth Rate [1, 5]: 1
Nc1cc(F)ccc1NC(=O)/C=C/c1cnn(C/C=C/c2ccccc2)c1	0	1	1	0	0	0		0			1		0				1	1			Growth Rate [1, 13]: 1; Growth Rate [1, 12]: 1; Growth Rate [1, 5]: 0; Growth Rate [3, 13]: 0; Growth Rate [3, 12]: 0; Growth Rate [3, 5]: 0
Cn1cc(CCn2cnc(-c3cnn(C)c3)c2-c2ccc(C#N)cc2)cn1	1	0	1	1	1			1		1	1	1	1		0	1	1	1	0	1	Growth Rate [1, 13]: 1; Growth Rate [3, 6]: 0; Growth Rate [3, 12]: 0; Growth Rate [3, 5]: 0
Cc1nnc2c3ccccc3c(N[C@@H](C)[C@H](c3ccccc3)N(C)C)nn12	0		1	1	1	0	1		0	0	0	0	0	1		0	1	1	1	1	Growth Rate [1, 10]: 0; Growth Rate [3, 12]: 0; Growth Rate [3, 5]: 0
